Laboratory results published in patent US6211170A, “Azetidinone derivatives for the treatment of HCMV infections” (Boehringer Ingelheim (Canada) Ltd., priority 1998, dated 2001).
Where two headings read alike, the source gives them in different places.

Experiments:
[1] = tested on: HCMV (strain AD169, ATCC VR-538); assay: Plaque Reduction Assay (PRA) in HCMV-infected Hs-68 cells; format: cell-based, human cytomegalovirus (HCMV)
Protocol: B. Plaque Reduction Assay (PRA):
Hs-68 cells (ATCC # CRL 1635) were seeded in 12-well plates at 83,000 cells/well in 1 mL of DMEM medium (Gibco Canada Inc.) supplemented with 10% fetal bovine serum (FBS, Gibco Canada Inc.). The plates were incubated for 3 days at 37° to allow the cells to reach 80-90% confluency prior to the assay.
The medium was removed from the cells by aspiration. The cells were then infected with approximately 50 PFU of HCMV (strain AD169, ATCC VR-538) in DMEM medium supplemented with 5% inactivated FBS (assay medium). (DMEM medium is commercially available and has been described by R. Dulbecco et al., Virology 1959, 8, 396.) The virus was allowed to adsorb to cells for 2 h at 37°. Following viral adsorption, the medium was removed from the wells by aspiration. The cells were then incubated with or without 1 mL of appropriate concentrations of test reagent in assay medium. Occasionally, test compounds were added 24 h post-infection. After 4 days of incubation at 37°, the medium was exchanged with fresh medium containing test compound and 4 days later the cells were fixed with 1% aqueous formaldehyde and stained with a 2% violet solution in 20% ethanol in water. Microscopic plaques were counted using a stereomicroscope. Drug effects were calculated as a percent reduction in the number of plaques in the presence of each drug concentration compared to the number observed in the absence of drug. Ganciclovir was used as a positive control in all experiments.

HCMV NO protease = biological target: T1, HCMV NO protease (Human cytomegalovirus, UniProt P16753); assay: HCMV NO Protease Assay (fluorogenic substrate cleavage); format: biochemical; conditions: HCMV NO protease 100 nM, substrate 5 μM, pH 8, 2.5 h at 30°
T1 construct: HCMV NO protease
T1 sequence (P16753 1-256): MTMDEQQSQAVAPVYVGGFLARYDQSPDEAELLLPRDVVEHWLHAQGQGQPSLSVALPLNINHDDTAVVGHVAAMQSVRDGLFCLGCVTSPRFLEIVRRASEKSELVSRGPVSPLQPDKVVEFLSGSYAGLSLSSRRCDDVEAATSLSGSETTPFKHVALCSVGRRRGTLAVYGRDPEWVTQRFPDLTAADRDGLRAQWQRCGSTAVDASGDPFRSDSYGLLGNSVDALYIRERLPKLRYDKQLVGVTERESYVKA
Protocol: This particular assay determines the ability of a test compound to inhibit the activity (IC50) of HCMV protease. More specifically, in the assay described herein, the inhibitory activity of the test compound is evaluated on the basis of its ability to interfere with the HCMV NO protease cleavage of a fluorogenic peptide substrate which in turn is based on the maturation cleavage site of the enzyme.
1. HCMV NO Protease Assay
Material & Methods: Fluorescence measurements were recorded on a Perkin-Elmer LS-50B spectrofluorimeter equipped with a plate reader accessory. UV measurements were recorded on a Thermomax® microplate reader from Molecular Devices Corporation, Menlo Park, Calif., USA.
HCMV NO protease was assayed with an internally quenched fluorogenic substrate based on the maturation cleavage site (Abz-[…](3-NO2)R--OH, kcat /KM =260 M^-1 s^-1). The fluorescence increase upon cleavage of the Ala-Ser amide bond was monitored using excitation λ=312 nm (slit 2.5 nm) and emission λ=415 nm (slit 5 nm). A protocol adaptable to a 96-well plate format was designed for the determination of IC50 values of inhibitors.
After this period, enzymatic hydrolysis of the fluorogenic substrate in the absence of inhibitor led to about a 30% conversion. Quenching was not required before fluorescence measurement since the total scanning time by the plate reader accessory was brief relative to the duration of the reaction. The aqueous incubation buffer contained 50 mM tris(hydroxymethyl)aminomethane.HCl pH 8, 0.5M Na2 SO4, 50 mM NaCl, 0.1 mM EDTA, 1 mM tris(2-carboxyethyl)phosphine.HCl, 3% v/v DMSO and 0.05% w/v casein. The final concentrations of HCMV NO protease (expressed in terms of total monomer concentration) and substrate were 100 nM and 5 μM respectively. IC50 values were obtained through fitting of the inhibition curve to a competitive inhibition model using SAS NLIN procedure. The mode of inhibition was determined by measurements of the initial rates (in cuvettes) at various substrate concentrations in the buffer as described above. The IC50 values listed in the following tables were obtained according to this assay.

[2] = Cytotoxicity, tetrazolium salt (MTT) metabolic assay; format: cell-based; conditions: cytotoxic effects, read-out: TC50 (the source's name)
Protocol: Cytotoxic effects noted as TC50 in the following tables were determined according to the tetrazolium salt (MTT) metabolic assay, F. Denizot and F. Lang, J. Immun. Meth., 1986, 89, 271.

[3] = Human betaherpesvirus 5, Hs68, 192 h, plaque reduction, HCMV strain AD169, Hs-68 cells, 8 days, read-out: EC50
[4] = Human betaherpesvirus 5, AD169, Hs68, 192 h

| Compound | EC50 [1, 3] [µM] | IC50 (HCMV NO protease) [µM] | CC50 [2] [µM] | EC50 [1, 4] [µM] |
| --- | --- | --- | --- | --- |
| CC[C@@H](NC(=O)N1C(=O)C[C@@H]1CSc1ncccn1)c1ccccc1 [Entry 104, 2-oxo-4(R)-(pyrimidin-2-ylsulfanylmethyl)azetidine-1-carboxylic acid (1(R)-phenylpropyl)amide] | 120 | 2.8 | > 209 |  |
| CC[C@@H](NC(=O)N1C(=O)[C@@H](C)[C@@H]1CSc1nc2ccccc2o1)c1ccccc1 [Entry 112] | 140 | 0.94 | > 250 |  |
| CN(Cc1ccc(C(F)(F)F)cc1)C(=O)N1C(=O)C[C@@H]1CSc1nnnn1C [Entry 320] | 69 | 0.47 | > 250 |  |
| CN(Cc1ccccc1)C(=O)N1C(=O)C[C@@H]1CSc1ncccn1 [Entry 318] | 150 | 10 | > 150 |  |
| CC[C@@H](NC(=O)N1C(=O)C[C@@H]1CN1CCOCC1)c1ccccc1 [Entry 205] |  | 9.4 |  |  |
| O=C1C[C@H](CSc2ccccc2)N1C(=O)NCc1ccncc1 [Entry 201, 2-oxo-4(R)-(phenylsulfanylmethyl) azetidine-1-carboxylic acid (pyridin-4-ylmethyl)amide] | 75 | 7.9 | > 270 |  |
| CN(Cc1ccc2c(c1)OCO2)C(=O)N1C(=O)C[C@@H]1CSc1ncccn1 [Entry 317] | 140 | 9 | > 249 |  |
| CC[C@@H](NC(=O)N1C(=O)C[C@@H]1COC(=O)c1ccc2ccccc2c1)c1ccccc1 [Entry 133] |  | 0.95 | > 26 | 18 |
| CC[C@@H](NC(=O)N1C(=O)C[C@@H]1COC(=O)c1ccccc1)c1ccccc1 [Entry 145] |  | 0.12 | 250 | 250 |
| O=C1C[C@H](CS(=O)(=O)c2ccccc2)N1C(=O)NCc1ccccc1 [Entry 203, 2(R)-benzenesulfonylmethyl-4-oxoazetidine-1-carboxylic acid benzyl amide] |  | 24 |  |  |
| C[C@@H](NC(=O)N1C(=O)C[C@@H]1CSc1ccccc1)c1ccccc1 [Entry 212] | 31 | 4.4 | > 52 |  |
| CN(C(=O)N1C(=O)C[C@@H]1CSc1ncccn1)c1ccccc1 [Entry 306] |  | 22 |  |  |
| O=C(NC[C@H]1CC(=O)N1C(=O)NCc1ccccc1)c1ccccc1 [Entry 204] | 120 | 2.6 | > 250 |  |
| CC[C@@H](NC(=O)N1C(=O)[C@@H](C)[C@@H]1CSCC(C)C)c1ccccc1 [Entry 117] | 110 | 3.5 | > 250 |  |
| CC[C@@H](NC(=O)N1C(=O)C[C@@H]1CN1CCCCC1)c1ccccc1 [Entry 206, 2-oxo-4(R)-(piperidin-1-ylmethyl)azetidine-1-carboxylic acid (1(R)-phenylpropyl)amide] | > 250 | 3.7 | > 250 |  |
| O=C(OCc1ccccc1)C1CCCN1C(=O)N1C(=O)C[C@@H]1CSc1ncccn1 (some centres unmarked) [Entry 401] |  | 21 |  |  |
| CC[C@@H](NC(=O)N1C(=O)[C@@H](C)[C@@H]1CSc1nccn1C)c1ccccc1 [Entry 116] | 130 | 1.9 | > 250 |  |
| CC[C@@H](NC(=O)N1C(=O)C[C@@H]1CSc1nc(C)cc(C)n1)c1ccccc1 [Entry 105] | 88 | 4.6 | > 250 |  |
| CN(Cc1ccc(C#N)cc1)C(=O)N1C(=O)C[C@@H]1CSc1ncccn1 [Entry 312] | 100 | 4.7 | > 250 |  |

| Compound | EC50 [1, 3] [µM] | IC50 (HCMV NO protease) [µM] | CC50 [2] [µM] | EC50 [1, 4] [µM] |
| --- | --- | --- | --- | --- |
| CC[C@@H](NC(=O)N1C(=O)C[C@@H]1[C@H](C)Sc1ncccn1)c1ccccc1 [Entry 208, 2-oxo-4(R)-[1(S)-(pyrimidin-2-ylsulfanyl)ethyl]-azetidine-1-carboxylic acid (1(R)-phenylpropyl)amide] | > 250 | 4.5 | > 250 |  |
| CC[C@@H](NC(=O)N1C(=O)[C@@H](C)[C@@H]1CSc1nccc(C)n1)c1ccccc1 [Entry 123] | 150 | 0.98 | > 250 |  |
| CC[C@@H](NC(=O)N1C(=O)[C@@H](C)[C@@H]1CSc1ccccn1)c1ccccc1 [Entry 108] | 180 | 1.2 | > 250 |  |
| Cn1nnnc1SC[C@H]1CC(=O)N1C(=O)NC1CCc2ccccc21 (some centres unmarked) [Entry 211] | 140 |  | 188 |  |
| CC[C@@H](NC(=O)N1C(=O)[C@@H](C)[C@@H]1CSC(C)C)c1ccccc1 [Entry 110] |  | 5.6 |  |  |
| COC(=O)c1ccc(CN(C)C(=O)N2C(=O)C[C@@H]2CSc2nccn2C)cc1 [Entry 308] |  | 22 |  |  |
| COC(=O)c1ccc(CN(C)C(=O)N2C(=O)C[C@@H]2CSc2nc3ccccc3o2)cc1 [Entry 310] |  | 3.3 |  |  |
| CC[C@@H](NC(=O)N1C(=O)C[C@@H]1CN(CC)CC)c1ccccc1 [Entry 210] |  | 48 |  |  |
| CC[C@@H](NC(=O)N1C(=O)C[C@@H]1COc1cccc(CC(=O)O)c1)c1ccccc1 [Entry 136] |  | 0.1 |  |  |
| O=C1C[C@H](CSc2ncccn2)N1C(=O)N1CCC[C@H]1c1ccccc1 [Entry 402, 1-(2(S)-phenyl-pyrrolidine-1-carbonyl)-4-(pyrimidin-2-ylsulfanylmethyl)azetidin-2-one] |  | 34 |  |  |
| CC(=O)OC[C@H]1CC(=O)N1C(=O)NCc1ccncc1 [Entry 207] |  | 46 |  |  |
| Cn1nnnc1SC[C@H]1CC(=O)N1C(=O)N1CCCC1c1ccccc1[N+](=O)[O-] (some centres unmarked) [Entry 408] | 100 |  | > 133 |  |
| O=C1C[C@H](C[S+]([O-])c2ccccc2)N1C(=O)NCc1ccccc1 (stereo partly drawn) [Entry 202, 4(R) -benzenesulfinylmethyl-2-oxoazetidine-1-carboxylic acid benzylamide] |  | 13 |  |  |
| CC[C@@H](NC(=O)N1C(=O)C[C@@H]1COc1cccc(CCC(=O)O)c1)c1ccccc1 [Entry 135] |  | 0.1 |  |  |
| CCSC[C@H]1[C@H](C)C(=O)N1C(=O)N[C@H](CC)c1ccccc1 [Entry 120] |  | 4 |  |  |
| CN(Cc1ccco1)C(=O)N1C(=O)C[C@@H]1CSc1ncccn1 [Entry 303] |  | 17 |  |  |
| CN(CC1CCCCO1)C(=O)N1C(=O)C[C@@H]1CSc1ncccn1 (some centres unmarked) [Entry 315] |  | 28 |  |  |
| CC[C@@H](NC(=O)N1C(=O)[C@@H](C)[C@@H]1CSc1ccccc1)c1ccccc1 [Entry 113] |  | 1.6 |  |  |
| CN(Cc1ccc([N+](=O)[O-])cc1)C(=O)N1C(=O)C[C@@H]1CSc1ncccn1 [Entry 322] | > 118 |  | > 118 |  |
